This passage reports melting point results from a melting point compilation (Tetko et al.; mined from patent text by program, amines drawn as free bases though some values may be those of a salt).

The melting point is the temperature, or range, at which the solid turns liquid.

The structures appear in SMILES notation.

As to `CCNC(=O)C=Cc1ccc(C(=C(CC)c2ccccc2)c2ccccc2)cc1`, the melting point was 192 to 193 °C.
Under `CC(=C1SCCCS1)c1ccc(N2CCN(C)CC2)cc1` stands 91 to 92 °C; under `COc1ccc(C(C)(O)c2sc(C)nc2C)cc1` (stereo not drawn), 114 to 116 °C; under `CC(=O)C1CNCc2c1[nH]c1cnc3cc(Cl)ccc3c21` (stereo not drawn), 235 to 237 °C.
`CNCCCc1c[nH]c(-c2ccc(F)cc2)c1-c1ccncc1` gave a melting point of 193 to 198 °C.
In turn, `CN(C)c1cccc(-c2cccc(-c3ccnc4c(C(=O)c5cccs5)cnn34)c2)c1` registered a melting point of 167 to 169 °C.
In turn, `COc1ccc(C(C#Cc2ccccc2)Cc2nnc(C)o2)cc1OC1CCCC1` (racemic) returned a melting point of 105 to 106 °C.
`COC(=O)c1ccc(C(=O)Oc2ccc([Si](C)(C)C)cc2C(C)=O)cc1` returned a melting point of 88.5 to 90.5 °C.
Take `O=C(Nc1cccnc1)N1CCN(c2nc(-c3ccccc3)cs2)CC1`: the melting point is 74 to 75 °C.
`O=C1c2cccc(Br)c2CN1Cc1cccc(C(F)(F)F)c1` registered a melting point of 119 to 120 °C.
Regarding `CCOC(=O)c1c[nH]c(Br)c1-c1ccc(Cl)cc1`, the melting point lay in the range of 161 to 164 °C.
Molecule `O=C(O)C1CCc2c(c3ccccc3n2C(=O)c2ccccc2)C1` (stereo not drawn) came in with a melting point of 188 to 190 °C.
Under `Cc1cc2c(s1)CCCC1CC(=O)N(c3ccc(Cl)cc3)N=C21` (stereo not drawn) stands 119 to 121 °C; under `CC(CCC(=O)NC(C)(C)CO)C1CCC2C3C(=O)CC4CC(O)CCC4(C)C3CC(O)C12C` (stereo not drawn), 229 to 231 °C.
Turning to `COc1ccc(Cn2[nH]c(N)cc2=O)cc1`, the melting point was determined as 161 °C.
For the molecule `CON(C(=O)c1cn(C)nc1C(F)(F)F)C(CF)Cc1c(Cl)cc(Cl)cc1Cl` (stereo not drawn), the melting point was in the range of 131 to 133 °C.
`Cc1cc(OC(F)F)nc(S(C)(=O)=O)n1` had a melting point of 86 to 88 °C.
With `N#Cc1cc(F)c(F)c(Br)c1Cl`, the melting point lay within 71 to 72.5 °C.
`O=C1Nc2ccc(F)cc2C(CCc2ccccc2)(C(F)(F)F)N1` (racemic) registered a melting point of 98 °C.
`C[C@@H](CCOC(N)=O)CN1CCC(c2noc3cc(F)ccc23)CC1` returned a melting point of 72 to 74 °C.
The molecule `Oc1ccc(OC[C@@H](O)CNCCc2ccc(-n3c(CCC4CCCC4)nc4cccnc43)cc2)cc1` displayed a melting point of 59 to 61 °C.
The molecule `COc1ccc2c(Cc3c(Cl)cncc3Cl)nn3nnnc3c2c1` had a melting point of 275 to 276 °C.
Molecule `NC(=O)c1[nH]nc([C@@H]2O[C@H](CO)[C@@H](O)[C@H]2O)c1O` showed a melting point of 112 to 115 °C.
As for `CCCCCCCN(CC)C(=O)CCCc1ccc(NS(C)(=O)=O)cc1`, the melting point lay in the range of 54 to 55 °C.
Then `Cc1sc2c(c1C)C(C1CCCCC1)=NCC(=O)N2`, with 205 °C; and `CN(C)CCCc1ccc(OCCCNc2nc(N)nn2C)cc1`, with 112 to 114 °C; and `Cc1ccc(N)cc1C(=S)OC(C)(C)C`, with 76 to 78 °C.
As to `O=C1CC(c2cccc(-n3ccnc3)c2)=Nc2ccc(-c3ccc(F)cc3O)cc2N1`, the melting point worked out at 220 °C.
Then `CC[C@H](NS(=O)(=O)c1ccc(OC)cc1)C(=O)OC(C)(C)C`, with 82 °C.
The molecule `CCOC(=O)C(C(=O)OCC)=C1CSC2=C1SCCNC2` showed a melting point of 87 to 89 °C.
`N#Cc1c(N2CCN(C(=O)c3ccco3)CC2)c2cc(F)cnc2n(Cc2cccc(F)c2)c1=O` showed a melting point of 211 °C.
Turning to `CCn1nc(C#N)cc1-c1cn(C(C)C)c2cc(NS(C)(=O)=O)ccc12`, the melting point is 144 to 145 °C.
Molecule `CC(C)(C)C1=NN(c2ccc(C(=O)O)cc2)C(c2ccc(Br)cc2)C1` (stereo not drawn) had a melting point of 222 °C.
On to `COc1cc(NC(C)=O)cc(C(F)(F)F)c1`, for which the melting point was 123 to 124 °C.
As for `CCn1cc(C(=O)O)c(=O)c2cc(F)c(N3CCNC(COc4ccccc4)C3)cc21` (stereo not drawn), the melting point lay in the range of 198 to 200 °C.
`Nc1c(F)c(N2CC[C@@H](C3(NCCO)CC3)C2)c(F)c2c1c(=O)c(C(=O)O)cn2[C@@H]1C[C@@H]1F`: the melting point is 198 to 200 °C.
The molecule `N#Cc1ccc(CN2CCN(c3cc(-c4ccccc4)c4ccc(=O)ccn34)CC2)cc1` had a melting point of 196 °C.
`CN(C)CCn1c2c(c3ccccc31)CCSCCC2` yielded a melting point of 62 to 64 °C.
Then `CCC(C)(C)OC(=O)N1CCC(c2ccc(COc3ccc(S(C)(=O)=O)cc3)nc2)CC1`, with 114 to 115 °C; and `O=C1c2ccccc2C(=O)N1CCCS(=O)(=O)c1ccccc1`, with 126 to 127 °C.
For the molecule `Cc1nc2c(S(=O)(=O)Cl)cccc2s1`, the melting point fell in the range of 100 to 102 °C.
Then `NC(=O)c1cnccc1C(F)(F)F`, with 163 °C; and `Cc1c(CNC(=O)NO)c2cc(OCc3ccc4ccccc4n3)ccc2n1Cc1ccc(Cl)cc1`, with 184 to 186 °C; and `CCC(C)(C)c1ccc(OCCCC(=O)Nc2ccc(Cl)c(NC(=O)CC(=O)C(C)(C)Sc3ccccc3)c2)c(C(C)(C)CC)c1`, with 144 to 145 °C.
Then `Cc1nc2ccccc2n1-c1ccc(C(=O)N(C)C2CCNCC2)cc1`, with 219 to 221 °C.
Under `CCC(CC)COc1c(-c2ccc(S(C)(=O)=O)cc2)cnn(-c2ccc(F)cc2)c1=O` stands 107 to 108 °C.
In the case of `CC(C)CCCOc1nc(N)c([N+](=O)[O-])cc1Cl`, the melting point lay within 53 to 54 °C.
In turn, `CNC(=O)c1ccccc1Nc1nc(Nc2ccc3c(c2)CCCC(=O)N3)ncc1Cl` registered a melting point of 283 °C.
`Nc1cc(N2CCCC2)c(F)cc1[N+](=O)[O-]` displayed a melting point of 115 to 116 °C.
Then `CCCCc1nc2c(N)nc3ccccc3c2n1CCCCNS(=O)(=O)c1cccs1`, with 138 to 142 °C.
As to `COc1ccccc1N1CCN(CCNc2ccccc2C(N)=O)CC1`, the melting point was in the range of 134 to 136 °C.
`O=C(Nc1cccc(C(F)(F)F)c1F)c1cccnc1NCc1ccc(=O)[nH]c1`: the melting point fell in the range of 219 to 222 °C.
Turning to `CNC(=O)C1(Nc2nc(Nc3cc4c(cc3OC)CCN(CC(=O)N(C)C)CC4)ncc2Cl)CCCC1`, the melting point is 75 to 87 °C.
For the molecule `COc1ccc(COc2ccc(OC)c(Cc3cnc(N)nc3N)c2)cc1`, the melting point fell in the range of 220 to 221 °C.
With `CC(C)C[C@@H](CO)NC(=O)[C@@H](NC(=O)c1ccc(C=O)o1)C(C)C`, the melting point was in the range of 39 to 41 °C.
Turning to `CCOC(=O)CCn1ccn([C@H]2CCc3c(F)cc(F)cc3C2)c1=S`, the melting point is 105 to 107 °C.
`CC1(C)Oc2cc([N+](=O)[O-])sc2C(N2CCCCC2=O)C1O` (stereo not drawn) registered a melting point of 158 °C.
`COc1cc(NCCN(C)Cc2ccccc2)ccc1C(N)=O` had a melting point of 153 to 155 °C.
`CCOc1ncnc(C(F)(F)F)c1CS(=O)(=O)C1=NOC(C)(CCl)C1` (stereo not drawn) showed a melting point of 76 to 78 °C.
Under `Cc1cc(-n2nc(C(F)F)cc2-c2ccc(S(C)(=O)=O)cc2)ccc1Cl` stands 145 to 146 °C.
`Cn1cc(C(N)=O)c(=O)c2ccc(F)cc21` returned a melting point of 317 to 318 °C.
In the case of `NC(=O)CNC(=O)c1sc(Nc2ccccc2)c2c1CCc1cnoc1-2`, the melting point lay within 213 to 214 °C.
In turn, `COc1ccc(C2CCC(=O)CC2NC(=O)c2ccc(OCC3CC3)c(OCC3CC3)c2)cc1OC` (stereo not drawn) yielded a melting point of 150 to 152 °C.
